Reference: ChEMBL document CHEMBL3885881, “DrugMatrix”

Species: Rattus norvegicus
Type: toxicity, organism-based, Sprague-Dawley
Conditions: in vivo, po, 24 h, route oral GAVAGE, time 1 day, vehicle .5 % CMC; for ABSOLUTE EOSINOPHIL / ABSOLUTE LYMPHOCYTE / ABSOLUTE MONOCYTE / ABSOLUTE SEGMENTED NEUTROPHIL / BASOPHIL / EOSINOPHIL / ERYTHROCYTE COUNT / HEMATOCRIT / HEMOGLOBIN / LEUKOCYTE COUNT / LYMPHOCYTE / MEAN CORPUSCULAR HEMOGLOBIN / MEAN CORPUSCULAR HEMOGLOBIN CONCENTRATION / MEAN CORPUSCULAR VOLUME / MONOCYTE / NEUTROPHIL / NUCLEATED RED BLOOD CELLS / PLATELET COUNT: tissue Blood; for ALANINE AMINOTRANSFERASE / ALBUMIN / ALKALINE PHOSPHATASE / ASPARTATE AMINOTRANSFERASE / BLOOD UREA NITROGEN / CARBON DIOXIDE / CHLORIDE / CHOLESTEROL / CREATININE / GLUCOSE / LACTATE DEHYDROGENASE / LIPASE / PHOSPHORUS / POTASSIUM / SODIUM / TOTAL BILIRUBIN / TOTAL PROTEIN / URIC ACID: tissue Plasma
[1] = 0 mg/kg, vehicle control, dose level Control

Description: DrugMatrix - Regimen: Single

SMILES: ClC(Cl)Br [BROMODICHLOROMETHANE]
- ABSOLUTE EOSINOPHIL [1]: 150 CELLS/uL
- ABSOLUTE LYMPHOCYTE [1]: 13279.83 CELLS/uL
- ABSOLUTE MONOCYTE [1]: 654.5 CELLS/uL
- ABSOLUTE SEGMENTED NEUTROPHIL [1]: 1565.67 CELLS/uL
- BASOPHIL [1]: 0%
- EOSINOPHIL [1]: 1%
- ERYTHROCYTE COUNT [1]: 5.36 x10E6/uL
- HEMATOCRIT [1]: 33.37%
- HEMOGLOBIN [1]: 12.52 G/DL
- LEUKOCYTE COUNT [1]: 15.65 x10E3/uL
- LYMPHOCYTE [1]: 84.83%
- MEAN CORPUSCULAR HEMOGLOBIN [1]: 23.4 pg
- MEAN CORPUSCULAR HEMOGLOBIN CONCENTRATION [1]: 37.52 G/DL
- MEAN CORPUSCULAR VOLUME [1]: 62.32 fL
- MONOCYTE [1]: 4.17%
- NEUTROPHIL [1]: 10%
- NUCLEATED RED BLOOD CELLS [1]: 0 /100WBC
- PLATELET COUNT [1]: 1020 x10E3/uL
- ALANINE AMINOTRANSFERASE [1]: 49 u/L
- ALBUMIN [1]: 4.47 G/DL
- ALKALINE PHOSPHATASE [1]: 361.17 u/L
- ASPARTATE AMINOTRANSFERASE [1]: 78.67 u/L
- BLOOD UREA NITROGEN [1]: 13.17 mg/dL
- CARBON DIOXIDE [1]: 29.67 mmol/L
- CHLORIDE [1]: 100.83 MEQ/L
- CHOLESTEROL [1]: 82.17 mg/dL
- CREATININE [1]: 0.15 mg/dL
- GLUCOSE [1]: 150.83 mg/dL
- LACTATE DEHYDROGENASE [1]: 239.17 u/L
- LIPASE [1]: 7.83 u/L
- PHOSPHORUS [1]: 13.82 mg/dL
- POTASSIUM [1]: 6.62 MEQ/L
- SODIUM [1]: 144.25 MEQ/L
- TOTAL BILIRUBIN [1]: 0.15 mg/dL
- TOTAL PROTEIN [1]: 6.2 G/DL
- URIC ACID [1]: 1.57 mg/dL
- ABSOLUTE EOSINOPHIL (430 mg/kg, dose level High): 41.33 CELLS/uL
- ABSOLUTE LYMPHOCYTE (430 mg/kg, dose level High): 10502.67 CELLS/uL
- ABSOLUTE MONOCYTE (430 mg/kg, dose level High): 677 CELLS/uL
- ABSOLUTE SEGMENTED NEUTROPHIL (430 mg/kg, dose level High): 1645.67 CELLS/uL
- BASOPHIL (430 mg/kg, dose level High): 0%
- EOSINOPHIL (430 mg/kg, dose level High): 0.33%
- ERYTHROCYTE COUNT (430 mg/kg, dose level High): 6.1 x10E6/uL
- HEMATOCRIT (430 mg/kg, dose level High): 36.03%
- HEMOGLOBIN (430 mg/kg, dose level High): 13.4 G/DL
- LEUKOCYTE COUNT (430 mg/kg, dose level High): 12.87 x10E3/uL
- LYMPHOCYTE (430 mg/kg, dose level High): 81.67%
- MEAN CORPUSCULAR HEMOGLOBIN (430 mg/kg, dose level High): 21.97 pg
- MEAN CORPUSCULAR HEMOGLOBIN CONCENTRATION (430 mg/kg, dose level High): 37.2 G/DL
- MEAN CORPUSCULAR VOLUME (430 mg/kg, dose level High): 59.07 fL
- MONOCYTE (430 mg/kg, dose level High): 5.33%
- NEUTROPHIL (430 mg/kg, dose level High): 12.67%
- NUCLEATED RED BLOOD CELLS (430 mg/kg, dose level High): 0 /100WBC
- PLATELET COUNT (430 mg/kg, dose level High): 1251 x10E3/uL
- ALANINE AMINOTRANSFERASE (430 mg/kg, dose level High): 62 u/L
- ALBUMIN (430 mg/kg, dose level High): 4.77 G/DL
- ALKALINE PHOSPHATASE (430 mg/kg, dose level High): 394.67 u/L
- ASPARTATE AMINOTRANSFERASE (430 mg/kg, dose level High): 108 u/L
- BLOOD UREA NITROGEN (430 mg/kg, dose level High): 16.33 mg/dL
- CARBON DIOXIDE (430 mg/kg, dose level High): 25 mmol/L
- CHLORIDE (430 mg/kg, dose level High): 103 MEQ/L
- CHOLESTEROL (430 mg/kg, dose level High): 68 mg/dL
- CREATININE (430 mg/kg, dose level High): 0.18 mg/dL
- GLUCOSE (430 mg/kg, dose level High): 128.67 mg/dL
- LACTATE DEHYDROGENASE (430 mg/kg, dose level High): 323 u/L
- LIPASE (430 mg/kg, dose level High): 10 u/L
- PHOSPHORUS (430 mg/kg, dose level High): 11.43 mg/dL
- POTASSIUM (430 mg/kg, dose level High): 5.73 MEQ/L
- SODIUM (430 mg/kg, dose level High): 144.9 MEQ/L
- TOTAL BILIRUBIN (430 mg/kg, dose level High): 0.17 mg/dL
- TOTAL PROTEIN (430 mg/kg, dose level High): 6.5 G/DL
- URIC ACID (430 mg/kg, dose level High): 1.7 mg/dL
